Laboratory results reported in paper PMC12138827, “Molecular Modeling and In Vitro Evaluation of Thioureas and Arylthioureas as Urease Inhibitors” (ACS Omega, 2025).
Values joined by “and” are separate entries in the source; they are usually repeats but may differ in a detail not shown here. Equal values may be shown once. “Also recorded” adds a separate entry of the source. Marks after values point to notes of the source that are not given here.

Target: T1, C. ensiformis urease (CEU) (Canavalia ensiformis, UniProt P07374)
T1 construct: purchased Merck (Sigma-Aldrich) Jack bean type III (CAS 9002-13-5)
T1 sequence (P07374 whole entry, looked up): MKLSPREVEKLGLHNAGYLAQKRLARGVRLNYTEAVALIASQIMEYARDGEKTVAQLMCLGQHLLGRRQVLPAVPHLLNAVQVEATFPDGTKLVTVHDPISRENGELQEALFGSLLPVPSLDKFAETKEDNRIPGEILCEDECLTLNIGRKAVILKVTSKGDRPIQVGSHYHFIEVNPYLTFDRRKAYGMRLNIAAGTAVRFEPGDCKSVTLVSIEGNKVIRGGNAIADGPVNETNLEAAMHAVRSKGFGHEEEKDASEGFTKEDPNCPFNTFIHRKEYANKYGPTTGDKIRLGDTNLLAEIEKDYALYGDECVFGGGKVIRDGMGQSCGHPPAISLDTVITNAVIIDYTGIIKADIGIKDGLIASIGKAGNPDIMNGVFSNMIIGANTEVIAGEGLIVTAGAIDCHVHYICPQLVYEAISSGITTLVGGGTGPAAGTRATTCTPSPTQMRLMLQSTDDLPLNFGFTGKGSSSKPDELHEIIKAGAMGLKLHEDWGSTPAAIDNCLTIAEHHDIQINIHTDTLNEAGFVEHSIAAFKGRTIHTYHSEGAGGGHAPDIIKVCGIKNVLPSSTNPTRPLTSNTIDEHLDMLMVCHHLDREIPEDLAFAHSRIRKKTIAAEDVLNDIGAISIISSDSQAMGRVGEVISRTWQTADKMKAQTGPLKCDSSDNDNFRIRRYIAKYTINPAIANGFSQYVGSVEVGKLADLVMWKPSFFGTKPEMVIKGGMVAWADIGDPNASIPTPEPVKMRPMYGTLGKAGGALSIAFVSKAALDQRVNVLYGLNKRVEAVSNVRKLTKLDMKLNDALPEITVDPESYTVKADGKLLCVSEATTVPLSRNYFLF
Assay: biochemical
Conditions: 0.2-2.0 mM; triplicate; read-out: IC50 ± SD
Experimental: The in vitro inhibitory activity of C. ensiformis urease was conducted using the indophenol reaction, also known as the Berthlot Reaction. Commercially purchased urease from Merck (Sigma-Aldrich), Jack bean type III (CAS 9002–13–5), was utilized, and the methodology was adapted from Khan et al. (2017).
(§1) The assays were performed in triplicate on a 96-well plate, as described by our research group. , The procedure involved adding 100 μL of urea (10 mM), 55.0 μL of sodium phosphate buffer solution (100 mM, pH 7.4) supplemented with EDTA (1 mM), and 10 μL of the test substance at 2.00 mM for inhibition percentage assays, previously dissolved in methanol. Subsequently, 25.0 μL of urease enzyme solution (0.0035 mM) was added, and the reaction mixture was incubated at 45–50 °C for 30 min. After incubation, 40.0 μL of phenol reagent (1% phenol and 0.05% sodium nitroprusside) and 40.0 μL of alkaline reagent (1.0% NaOH and […]) were added. The reaction rested for 15 min, and the absorbance was read at 630 nm using a Loccus model LMR-96i UV–visible microplate reader.
Thiourea (2.00 mM) served as the standard inhibitor.
To determine half of the maximum inhibitory concentration (IC50), substances LaSMMed 42, LaSMMed 122–126, and the thiourea control were tested at different concentrations (0.2, 0.4, 0.8, 1.0, 1.4, and 2.0 mM). The IC50 values were calculated using GraphPad Prism 8.0.2, employing a dose–response curve.
NC(N)=S [Thiourea] gave an IC50 of 504 ± 25 µM.

Same assay, conditions: IC50 ± SD, 0.2-2.0 mM; triplicate
COc1ccc(NC(N)=S)cc1 [LaSMMed 125] showed an IC50 of 510 ± 19 µM. For NC(=S)Nc1ccc(Cl)cc1 [LaSMMed 122], the IC50 was ~575 µM and 575 µM. NC(=S)Nc1ccc([N+](=O)[O-])cc1 [LaSMMed 124] showed an IC50 of 464 ± 3 µM. Work on Cc1ccc(NC(N)=S)cc1 [LaSMMed 126] yielded an IC50 of 568 ± 22 µM. Work on Cc1ccc(NC(N)=S)cc1 [compound 126] yielded an IC50 of roughly 575 µM. NC(=S)Nc1ccc(Br)cc1 [LaSMMed 123] gave an IC50 of 493 ± 7 µM.

Same assay, conditions: read-out: %I ± SD (inhibitory percentage against CEU), test substance at 2.00 mM; triplicate
In the case of COc1ccc(NC(N)=S)cc1 [LaSMMed 125], the inhibition at 2000 µM is reported as 84%. In the case of CCCCCCNC(=S)NC(=O)/C=C/c1ccccc1 [compound 40], the inhibition at 2000 µM is reported as 30 to 40%. Compound O=C(/C=C/c1ccccc1)NC(=S)Nc1ccc(F)cc1 [LaSMMed 45] has an inhibition at 2000 µM of 24%. With NC(=S)Nc1ccc(Cl)cc1 [LaSMMed 122] the inhibition at 2000 µM was 87.6 ± 1.72%. For NC(=S)NC(=O)/C=C/c1ccccc1 [LaSMMed 42], the inhibition at 2000 µM was 82%. Compound NC(=S)Nc1ccc([N+](=O)[O-])cc1 [LaSMMed 124] has an inhibition at 2000 µM of 88.3 ± 0.26%. With CNC(=S)NC(=O)/C=C/c1ccccc1 [LaSMMed 37] the inhibition at 2000 µM was 30 to 40%. Cc1ccc(NC(=S)NC(=O)/C=C/c2ccccc2)cc1 [compound 46] showed an inhibition at 2000 µM of 13%. Cc1ccc(NC(N)=S)cc1 [LaSMMed 126] showed an inhibition at 2000 µM of 87.86 ± 0.48%. Compound NC(=S)Nc1ccc(Br)cc1 [LaSMMed 123] has an inhibition at 2000 µM of 86.18 ± 0.75%.

Same assay, conditions: test substance at 2.00 mM; triplicate
For COc1ccc(NC(N)=S)cc1 [LaSMMed 125], the “%I ± SD (inhibitory percentage against CEU)” value was 84.56 ± 1.23^b %. With NC(N)=S [Thiourea] the “%I ± SD (inhibitory percentage against CEU)” value was 84.12 ± 0.84^d %. With O=C(/C=C/c1ccccc1)NC(=S)Nc1ccc(F)cc1 [LaSMMed 45] the “%I ± SD (inhibitory percentage against CEU)” value was 23.98 ± 1.44^e %. In the case of Cc1ccc(NC(=S)NC(=O)/C=C/c2ccccc2)cc1 [LaSMMed 46], the “%I ± SD (inhibitory percentage against CEU)” value is reported as 13.04 ± 2.46^f %. In the case of NC(=S)NC(=O)/C=C/c1ccccc1 [LaSMMed 42], the “%I ± SD (inhibitory percentage against CEU)” value is reported as 82.37 ± 0.34^d %. For CCCCCCNC(=S)NC(=O)/C=C/c1ccccc1 [LaSMMed 40], the “%I ± SD (inhibitory percentage against CEU)” value was 39.34 ± 1.72^c %. With CNC(=S)NC(=O)/C=C/c1ccccc1 [LaSMMed 37] the “%I ± SD (inhibitory percentage against CEU)” value was 33.53 ± 1.06^c %.

Same assay, conditions: test substance at 2.00 mM; triplicate; listed as thiourea
In the case of NC(N)=S [Thiourea], the “%I ± SD (inhibitory percentage against CEU)” value is reported as 84%.

Target: T1, C. ensiformis urease (CEU)
Assay: Enzyme kinetics on C. ensiformis urease (Michaelis–Menten, Lineweaver–Burk plots)
Format: biochemical
Conditions: CEU kinetic parameter with the compound
Experimental: Enzyme kinetics were studied following previous work by our research group. , The same reaction mixture was applied to determine inhibitory activity, and the IC50 was adopted to study enzyme kinetics in C. ensiformis urease. However, only two concentrations of the test substance were used (0.50 and 0.25 mM), along with five different concentrations of urea substrate (0.66, 1.00, 1.50, 2.00, and 2.50 mM) for each sample. The absorbance of the reaction mixture was recorded at 630 nm using a Loccus model LMR-96i UV–visible microplate reader. Michaelis–Menten (nonlinear regression) and Lineweaver–Burk (linear regression) plots, as well as the determination of inhibition constants (K i ), K m, α, and V max, were made using GraphPad Prism software (version 8.0.2). Enzymatic activity was calculated using an ammonium chloride calibration curve. One unit of enzymatic activity (U) is the amount of enzyme capable of releasing 1 μmol of ammonia per minute of reaction (U = 1 μmol NH4 ^+ min^–1 μmol enzyme^–1). The assays were performed in triplicate.
Work on COc1ccc(NC(N)=S)cc1 [LaSMMed 125] yielded a Vmax of 737.50 µmol/min. NC(=S)Nc1ccc(Cl)cc1 [LaSMMed 122] gave a Vmax of 735.50 µmol/min. In the case of NC(=S)Nc1ccc([N+](=O)[O-])cc1 [LaSMMed 124], the Vmax is reported as 733.50 µmol/min. Compound Cc1ccc(NC(N)=S)cc1 [LaSMMed 126] has a Vmax of 732.30 µmol/min. For NC(=S)Nc1ccc(Br)cc1 [LaSMMed 123], the Vmax was 741.30 µmol/min.

Same assay, conditions: Ki, Lineweaver–Burk; compound 0.50 and 0.25 mM
In the case of COc1ccc(NC(N)=S)cc1 [LaSMMed 125], the Ki is reported as 80 µM. For NC(=S)Nc1ccc(Cl)cc1 [LaSMMed 122], the Ki was 90 µM and 89 µM. In the case of NC(=S)Nc1ccc([N+](=O)[O-])cc1 [LaSMMed 124], the Ki is reported as 130 µM. For NC(=S)Nc1ccc([N+](=O)[O-])cc1 [compound 124], the Ki was roughly 100 µM. For Cc1ccc(NC(N)=S)cc1 [LaSMMed 126], the Ki was 100 µM. For Cc1ccc(NC(N)=S)cc1 [compound 126], the Ki was roughly 100 µM. Compound NC(=S)Nc1ccc(Br)cc1 [LaSMMed 123] has a Ki of 110 µM.

Same assay, conditions: Lineweaver–Burk plots
For COc1ccc(NC(N)=S)cc1 [LaSMMed 125], the “Inhibition type (mechanism of action)” value was “competitive inhibition; also recorded: competitive inhibitor”. For Cc1ccc(NC(N)=S)cc1 [LaSMMed 126], the “Inhibition type (mechanism of action)” value was “mixed-type inhibition”.

Same assay, conditions: mixed inhibitors
In the case of NC(=S)Nc1ccc(Cl)cc1 [LaSMMed 122], the “Alfa (α)” value is reported as 6.00. With NC(=S)Nc1ccc([N+](=O)[O-])cc1 [LaSMMed 124] the “Alfa (α)” value was 6.13. For Cc1ccc(NC(N)=S)cc1 [LaSMMed 126], the “Alfa (α)” value was 4.88. In the case of NC(=S)Nc1ccc(Br)cc1 [LaSMMed 123], the “Alfa (α)” value is reported as 9.75.

System: not listed separately
Assay: Solubility under the urease assay conditions
Format: physicochemical
Conditions: urease assay medium
Experimental: as §1
For COc1ccc(NC(=S)NC(=O)/C=C/c2ccccc2)cc1 [LaSMMed 44], the “Solubility under the tested conditions” value was “insoluble”.
